Experimental data from publication PMC7076710, “Synthesis, Identification, and Structure–Activity Relationship Analysis of GATA4 and NKX2-5 Protein–Protein Interaction Modulators” (Journal of Medicinal Chemistry, 2019).

Biological target: T1, GATA4–NKX2-5 transcriptional synergy (Mus musculus, UniProt P42582+Q08369)
T1 construct: expressed in transfected cells; host or cells: COS-1
Test: GATA4–NKX2-5 transcriptional synergy luciferase reporter assay (3xNKE reporter, COS-1 cells)
Format: cell-based
Procedure: To screen compounds for the GATA4–NKX2-5 interaction, we have developed a luciferase reporter assay based on their property to activate gene transcription synergistically through the NKX2-5 binding site on DNA.[28] In this assay, we transfected mammalian COS-1 cells with protein expression vectors for GATA4 and NKX2-5 proteins together with artificial luciferase reporter vector containing three high affinity binding sites for NKX2-5 (NKE). […] All 257 compounds were tested in two concentrations, 3 and 10 μM. Compounds either inhibited, enhanced, or had no effect on the GATA4–NKX2-5 transcriptional synergy. To investigate the selectivity of the active compounds, we tested their effects on NKX2-5 transcriptional activity by using the same luciferase reporter vector as in transcriptional synergy assay with three NKE sites (Figure 3B). Furthermore, we used GATA luciferase reporter assay to examine if compounds have an effect on GATA4 transcriptional activity. In this assay, we cotransfected the cells with a GATA4 protein expression vector and a reporter vector with tandem GATA4 binding sites (Figure 3C). Previously we have reported that compound 1 inhibited the GATA4–NKX2-5 transcriptional synergy at micromolar concentrations (IC50 = 3 μM).[29]
The plasmids expressing mouse GATA4 protein, pMT2-GATA4, and empty pMT2 were gifts from D. B. Wilson (Department of Pediatrics, St. Louis Children’s Hospital, St. Louis, MO).[44] The plasmids expressing mouse NKX2-5 protein, pMT2-NKX2-5, have been described earlier.[28] The luciferase reporter plasmid used in GATA4–NKX2-5 transcriptional synergy assay and NKX transcriptional assay, pGL3-3xHA, contains three high affinity binding sites for NKX2-5.[28] The luciferase reporter plasmid used in GATA transcriptional assay, NP-112, contains tandem GATA-sites and minimal promoter of rat brain natriuretic peptide (BNP) gene.[45] The pGL3-BNP luciferase reporter containing −534/+4 bp rat BNP proximal promoter described previously was used in hypertrophy assay.[46]
The primary screening assay of compounds’ effect on GATA4–NKX2-5 transcriptional synergy and COS-1 cell culturing has been described earlier.[33] […] (Kinnunen et al., unpublished observation). Briefly, COS-1 cells were seeded at 14 000 cells/well in Isoplate-96 microplates (PerkinElmer, Turku, Finland) and grown overnight. The cells were transfected with the luciferase reporter plasmid pGL3-3xHA 100 ng/well and equal amounts of expression plasmids pMT2-GATA4 and pMT2-NKX2-5 total 50 ng/well. To verify the synergistic effect, the cells were transfected with pMT2-GATA4 or pMT2-NKX2-5 25 ng/well, and the total DNA concentration was adjusted to 50 ng/well with empty pMT2 plasmid. In NKX2-5 and GATA4 luciferase reporter assays, the cells were transfected with reporter plasmid pGL3-3xHA or NP-112 (100 ng/well) and expression plasmid pMT2-NKX2-5 or pMT2-GATA4 (25 ng/well). The ratio of DNA/transfection reagent (Fugene 6, Promega) was 1:3 in all assays. The transfections were performed in serum and antibiotics free media for 6 h. The cells were treated with compounds or vehicle (0.1% DMSO) for 24 h, and the luminescence was measured using neolite Reporter Gene Assay System (PerkinElmer, Turku, Finland) and Victor2 plate reader (PerkinElmer, Turku, Finland).
Raw luciferase data were analyzed in Excel, and clear outliers were removed from triplicates by using the Grubb’s test. Data analysis was performed using R.[49] The luciferase data were first normalized on the basis of the combined mean value of controls. For data visualization and creation of figures, the following R packages were used: ggplot2, cowplot, RColorBrewer, and pheatmap. The heatmaps of the toxicity data were produced with GraphPad Prism 7.00 (GraphPad Software, La Jolla, CA). Statistical significance of luciferase reporter assay data was evaluated by randomized block analysis of variance followed by Dunnett’s post hoc test. […]

[1] = COS-1, compound at 3 µM, luciferase reporter activity, % of control
[2] = COS-1, compound at 10 µM, luciferase reporter activity, % of control
[3] = COS-1, compound 3 µM, luciferase reporter activity relative to control
[4] = COS-1, compound 10 µM, luciferase reporter activity relative to control
[5] = COS-1, 3 µM, luciferase reporter activity, % of control
[6] = COS-1, 10 µM, luciferase reporter activity, % of control
[7] = 3 µM compound, GATA4–NKX2-5 transcriptional synergy reporter, COS-1 cells
[8] = 10 µM compound, GATA4–NKX2-5 transcriptional synergy reporter, COS-1 cells

T1 sequence (Q08369 whole entry): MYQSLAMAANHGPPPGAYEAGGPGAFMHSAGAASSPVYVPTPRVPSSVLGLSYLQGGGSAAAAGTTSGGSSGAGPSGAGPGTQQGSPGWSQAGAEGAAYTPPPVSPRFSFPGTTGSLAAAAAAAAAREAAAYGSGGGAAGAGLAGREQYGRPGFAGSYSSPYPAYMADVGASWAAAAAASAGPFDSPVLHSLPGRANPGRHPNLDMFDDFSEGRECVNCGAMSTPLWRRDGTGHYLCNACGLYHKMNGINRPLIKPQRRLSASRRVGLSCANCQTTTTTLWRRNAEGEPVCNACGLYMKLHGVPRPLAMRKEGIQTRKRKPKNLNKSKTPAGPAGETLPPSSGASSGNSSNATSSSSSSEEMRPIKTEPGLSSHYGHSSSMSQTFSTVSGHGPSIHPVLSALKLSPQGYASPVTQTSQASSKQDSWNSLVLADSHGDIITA
T1 sequence (P42582 whole entry): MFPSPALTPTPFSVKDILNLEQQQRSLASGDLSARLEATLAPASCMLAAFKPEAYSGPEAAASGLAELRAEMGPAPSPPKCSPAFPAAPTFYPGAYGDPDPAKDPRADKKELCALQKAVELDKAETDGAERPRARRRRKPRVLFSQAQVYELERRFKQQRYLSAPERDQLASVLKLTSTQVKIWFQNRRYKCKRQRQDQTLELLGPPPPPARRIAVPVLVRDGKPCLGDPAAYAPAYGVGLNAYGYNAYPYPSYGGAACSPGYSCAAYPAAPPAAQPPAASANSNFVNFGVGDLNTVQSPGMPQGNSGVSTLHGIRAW

## Cc1onc(-c2ccccc2)c1C(=O)N(N)S(=O)(=O)c1ccccc1 [SI27]
[1]
  activity at 3 µM: 106%
[2]
  activity at 10 µM: 113%

## CCN(CC)c1ccc(N(CCC2OCCO2)C(=O)c2c(-c3cccc([N+](=O)[O-])c3)noc2C)cc1 [SI29]
[3]
  activity at 3 µM: 82.9%
[4]
  activity at 10 µM: 82.5%

## CCN(CC)c1ccc(N(CCOC)C(=O)c2c(-c3cccc([N+](=O)[O-])c3)noc2C)cc1 [SI30]
[3]
  activity at 3 µM: 74.9%
[4]
  activity at 10 µM: 86%

## Cc1onc(-c2ccccc2)c1NC(=O)CCCCCBr [SI31]
[5]
  activity at 3 µM: 66.7%
[6]
  activity at 10 µM: 78.2%

## COc1ccc(C(=O)Nc2c(-c3ccccc3)noc2C)cc1 [SI32]
[5]
  activity at 3 µM: 110%
[6]
  activity at 10 µM: 96.2%

## Cc1onc(-c2ccccc2)c1NC(=O)c1ccc(CN(C)C)cc1 [SI33]
[1]
  activity at 3 µM: 95.3%
[2]
  activity at 10 µM: 112%

## CCCCCc1ccc(C(=O)Nc2c(-c3ccccc3)noc2C)cc1 [SI34]
[5]
  activity at 3 µM: 97.8%
[6]
  activity at 10 µM: 77.6%

## CCCCCc1ccc(C(=S)Nc2c(-c3ccccc3)noc2C)cc1 [SI35]
[3]
  activity at 3 µM: 89.2%
[4]
  activity at 10 µM: 75.8%

## CCN(CCO)c1ccc(N(C)C(=O)c2c(-c3ccccc3)noc2C)cc1 [SI36]
[1]
  activity at 3 µM: 87%
[2]
  activity at 10 µM: 117%

## Cc1onc(-c2ccccc2)c1C(=S)Nc1ccc(OCc2ccccc2)cc1 [SI37]
[1]
  activity at 3 µM: 108%
[2]
  activity at 10 µM: 87.4%

## CCN(c1ccc(NC(=S)c2c(-c3ccccc3)noc2C)cc1)C(C)C [SI38]
[1]
  activity at 3 µM: 72.7%
[2]
  activity at 10 µM: 112%

## Cc1onc(-c2ccccc2)c1C(=O)Nc1ccc2c(c1)C(=O)CC(C)(C)O2 [SI39]
[7]
  activity at 3 µM: 123%
[8]
  activity at 10 µM: 106%

## Cc1onc(-c2ccccc2)c1CNc1ccc2oc(-c3ccccc3)cc(=O)c2c1 [SI40]
[7]
  activity at 3 µM: 94.8%
[8]
  activity at 10 µM: 99.6%

## CCN(CC)c1ccc(NCc2ccncc2)cc1 [SI41]
[3]
  activity at 3 µM: 110%
[4]
  activity at 10 µM: 100%

## Cc1onc(-c2ccccc2)c1N=Cc1ccc(N(CCO)CCO)cc1 [SI42]
[5]
  activity at 3 µM: 82.9%
[6]
  activity at 10 µM: 118%

## Cc1onc(-c2ccccc2)c1NCc1ccc(N(CCO)CCO)cc1 [SI43]
COS-1, compound 3 µM, luciferase reporter activity, spread in separate STDEV column
  activity at 3 µM: 109%
COS-1, compound 10 µM, luciferase reporter activity, spread in separate STDEV column
  activity at 10 µM: 99.7%

## Cc1onc(-c2ccccc2)c1/N=C/c1ccc(C(C)N(C)C)cc1 (stereo not shown) [SI45]
[5]
  activity at 3 µM: 88.4%
[6]
  activity at 10 µM: 98.2%

## CN(C)c1ccc(/C=N/c2c(-c3ccccc3)nc3ncccn23)cc1 [SI46]
[1]
  activity at 3 µM: 98.9%
[2]
  activity at 10 µM: 102%

## CCC(=O)c1ccc(OCc2c(C)noc2-c2ccccc2)cc1 [SI47]
[3]
  activity at 3 µM: 89.3%
[4]
  activity at 10 µM: 95.3%

## Cc1onc(-c2ccccc2)c1COCc1ccc(OC(F)(F)F)cc1 [SI49]
[5]
  activity at 3 µM: 92.6%
[6]
  activity at 10 µM: 82.9%

## CCc1noc(C)c1C(=O)Nc1ccc2oc(-c3ccccc3)cc(=O)c2c1 [SI50]
[7]
  activity at 3 µM: 91.4%
[8]
  activity at 10 µM: 97.4%

## Cc1onc(-c2ccccc2Cl)c1C(=O)Nc1ccc2oc(-c3ccccc3)cc(=O)c2c1 [SI51]
[7]
  activity at 3 µM: 96.2%
[8]
  activity at 10 µM: 75.2%

## Cc1cc(NC(=O)c2c(-c3cccc([N+](=O)[O-])c3)noc2C)ccc1C(C)C [SI52]
[1]
  activity at 3 µM: 93.1%
[2]
  activity at 10 µM: 91%

## CCN(CC)c1ccc(NC(=S)c2c(-c3c(Cl)cccc3Cl)noc2C)cc1 [SI53]
[1]
  activity at 3 µM: 81.2%
[2]
  activity at 10 µM: 70.1%

## CCN(CC)c1ccc(NC(=O)c2c(-c3ccccc3)nnn2CCC2OCCO2)cc1 [SI58]
[3]
  activity at 3 µM: 78.8%
[4]
  activity at 10 µM: 65%

## CCN(CC)c1ccc(NC(=O)c2c(-c3ccccc3)nnn2Cc2ccccc2)cc1 [SI60]
[3]
  activity at 3 µM: 97.8%
[4]
  activity at 10 µM: 72.4%

## COC(=O)c1c(-c2ccccc2)nnn1CC1CCCO1 (stereo not shown) [SI61]
[3]
  activity at 3 µM: 101%
[4]
  activity at 10 µM: 100%

## CCN(CC)c1ccc(NC(=O)c2c(-c3ccccc3)nnn2CC2CCCO2)cc1 (stereo not shown) [SI62]
[3]
  activity at 3 µM: 88.2%
[4]
  activity at 10 µM: 72.5%

## CCN(CC)c1ccc(NC(=O)c2c(-c3ccccc3)nnn2CC(C)C)cc1 [SI68]
[3]
  activity at 3 µM: 83.6%
[4]
  activity at 10 µM: 69.1%
